The source of these data is patent US8252723B2, “Substituted 1-(3-pyridinyl)pyrazol-4-ylacetic acids, processes for their preparation and their use as herbicides and plant growth regulators” (Bayer CropScience AG, priority 2006, dated 2012).

The test concerns summer wheat of the cultivar 'Triso'. The experiment in a line: Plant growth regulation test: culm stabilization of crop plants. The class given is in vivo. Particulars: application rate of 30 to 300 g of active substance per hectare, treated at stage BBCH 31, culm length measured after ears had formed. How it is done:
With stirring, the compound of the formula (I) in question was, in the form of a water-dispersible powder, together with a surfactant (customary adjuvant at an application rate of 1 l/ha), mixed with water such that a homogenous spray liquor was formed, and applied at an application rate of 300 l of water/ha (converted).
Seeds of summer wheat of the cultivar ‘Triso’ were sown at a depth of 1 cm in plant pots and cultivated outdoors until treatment.
The plants were treated on a laboratory track sprayer with spray liquors of the test substances at macrostage 3 after having reached about 10% of the maximum longitudinal growth typical for the cultivar (stage BBCH 31) and, after the treatment, returned outdoors.
After the ears had formed, the length of the culms were measured. The culm stabilization was evaluated as a percentage of the untreated control.
As to `Cc1nn(-c2cccnc2)c(-c2ccco2)c1CC(=O)O` [Example 1-4], the “longitudinal growth (culm length) of summer wheat” value (“longitudinal growth (culm length)” below) is recorded as “effectively shortened”. On to `COc1ccc(-n2nc(C)c(CC(=O)O)c2-c2ccccc2)cn1` [Example 1-5], for which the “longitudinal growth (culm length)” value was “effectively shortened”.

Take `Cc1nn(-c2ccc(Cl)nc2)c(-c2ccccc2)c1CC(=O)O` [Example 1-7]: the “longitudinal growth (culm length)” value was “effectively shortened”. The result for `Cc1nn(-c2cnccc2C(F)(F)F)c(-c2ccccc2)c1CC(=O)O` [Example 1-8] reads “effectively shortened”; that for `Cc1nn(-c2ccc(C(F)(F)F)nc2)c(-c2ccccc2)c1CC(=O)O` [Example 1-9], “effectively shortened”; that for `Cc1ccc(-n2nc(C)c(CC(=O)O)c2-c2ccccc2)c(C)n1` [Example 1-11], “effectively shortened”. Under `Cc1nn(-c2ccc(Cl)nc2Cl)c(-c2ccccc2)c1CC(=O)O` [Example 1-12] stands “effectively shortened”. With `COc1ccc(-c2c(CC(=O)O)c(C)nn2-c2cnccc2C)cc1` [Example 1-13], the “longitudinal growth (culm length)” value is reported as “effectively shortened”.

As for `COc1ccc(-c2c(CC(=O)O)c(C)nn2-c2cccnc2)cc1` [Example 1-14], the “longitudinal growth (culm length)” value is on record as “effectively shortened”. The result for `Cc1ccc(-c2c(CC(=O)O)c(C)nn2-c2cccnc2)cc1` [Example 1-16] reads “effectively shortened”; that for `Cc1nn(-c2cccnc2)c(-c2cccc(C(F)(F)F)c2)c1CC(=O)O` [Example 1-18], “effectively shortened”. Under `Cc1ccncc1-n1nc(C)c(CC(=O)O)c1-c1cccc(C(F)(F)F)c1` [Example 1-19] stands “effectively shortened”; under `Cc1ccncc1-n1nc(C)c(CC(=O)O)c1-c1ccc(Cl)c(Cl)c1` [Example 1-20], “effectively shortened”; under `Cc1ccncc1-n1nc(C)c(CC(=O)O)c1-c1cccc(Cl)c1` [Example 1-21], “effectively shortened”. Take `Cc1ccncc1-n1nc(C)c(CC(=O)O)c1-c1ccccc1Cl` [Example 1-22]: the “longitudinal growth (culm length)” value is recorded as “effectively shortened”. In the case of `Cc1ccncc1-n1nc(C)c(CC(=O)O)c1-c1ccc(Cl)cc1Cl` [Example 1-23], the “longitudinal growth (culm length)” value is given as “effectively shortened”.

For the compound `Cc1ccncc1-n1nc(C)c(CC(=O)O)c1-c1ccc(C(F)(F)F)cc1` [Example 1-24], the “longitudinal growth (culm length)” value was “effectively shortened”. Under `Cc1ccncc1-n1nc(C)c(CC(=O)O)c1-c1ccc(Cl)cc1` [Example 1-25] stands “effectively shortened”; under `Cc1nn(-c2cccnc2)c(-c2ccc(Cl)cc2)c1CC(=O)O` [Example 1-26], “effectively shortened”. Under `Cc1nn(-c2cccnc2)c(-c2ccc(Cl)c(Cl)c2)c1CC(=O)O` [Example 1-27] stands “effectively shortened”. As to `Cc1nn(-c2cccnc2)c(-c2ccc(C(F)(F)F)cc2)c1CC(=O)O` [Example 1-28], the “longitudinal growth (culm length)” value is “effectively shortened”.

Regarding `Cc1nn(-c2cnccc2Cl)c(-c2ccc(Cl)cc2)c1CC(=O)O` [Example 1-29], the “longitudinal growth (culm length)” value is given as “effectively shortened”. Under `Cc1nn(-c2cnccc2Cl)c(-c2ccccc2)c1CC(=O)O` [Example 1-30] stands “effectively shortened”. The result for `Cc1nn(-c2cccnc2)c(-c2ccccc2Cl)c1CC(=O)O` [Example 1-31] reads “effectively shortened”; that for `Cc1ccncc1-n1nc(C)c(CC(=O)O)c1-c1ccc(C(C)(C)C)cc1` [Example 1-32], “effectively shortened”; that for `Cc1cc(C)cc(-c2c(CC(=O)O)c(C)nn2-c2cnccc2C)c1` [Example 1-33], “effectively shortened”. The result for `COc1ccncc1-n1nc(C)c(CC(=O)O)c1-c1ccccc1` [Example 1-34] reads “effectively shortened”; that for `COc1ccncc1-n1nc(C)c(CC(=O)O)c1-c1ccc(Cl)cc1` [Example 1-35], “effectively shortened”. As to `Cc1ccc(-c2c(CC(=O)O)c(C)nn2-c2cnccc2C)cc1` [Example 1-36], the “longitudinal growth (culm length)” value is on record as “effectively shortened”. Under `Cc1ccncc1-n1nc(C)c(CC(=O)O)c1-c1ccc(F)cc1` [Example 1-37] stands “effectively shortened”; under `Cc1cccc(-c2c(CC(=O)O)c(C)nn2-c2cnccc2C)c1` [Example 1-38], “effectively shortened”.

In the case of `Cc1ccncc1-n1nc(C)c(CC(=O)O)c1-c1ccc(C(=O)O)cc1` [Example 1-39], the “longitudinal growth (culm length)” value is “effectively shortened”. The result for `Cc1ccncc1-n1nc(C)c(CC(=O)O)c1-c1cccc(Br)c1` [Example 1-40] reads “effectively shortened”; that for `Cc1ccncc1-n1nc(C)c(CC(=O)O)c1-c1ccc(-c2ccccc2)cc1` [Example 1-41], “effectively shortened”; that for `Cc1nn(-c2cccnc2)c(-c2ccc(C(=O)O)cc2)c1CC(=O)O` [Example 1-42], “effectively shortened”. The result for `Cc1cc(C)cc(-c2c(CC(=O)O)c(C)nn2-c2cccnc2)c1` [Example 1-43] reads “effectively shortened”; that for `CSc1ccncc1-n1nc(C)c(CC(=O)O)c1-c1ccc(Cl)cc1` [Example 1-45], “effectively shortened”; that for `Cc1ccc(-c2c(CC(=O)O)c(C)nn2-c2cccnc2)cc1Cl` [Example 1-46], “effectively shortened”.

Regarding `Cc1nn(-c2cccnc2)c(-c2ccc(Cl)c(C(F)(F)F)c2)c1CC(=O)O` [Example 1-47], the “longitudinal growth (culm length)” value is listed as “effectively shortened”.

As to `Cc1ccncc1-n1nc(C)c(CC(=O)O)c1-c1ccc(Cl)c(C(F)(F)F)c1` [Example 1-48], the “longitudinal growth (culm length)” value is recorded as “effectively shortened”. In the case of `Cc1ccc(-c2c(CC(=O)O)c(C)nn2-c2cnccc2C)cc1Cl` [Example 1-49], the “longitudinal growth (culm length)” value is recorded as “effectively shortened”. The result for `Cc1cncc(-n2nc(C)c(CC(=O)O)c2-c2ccccc2)c1` [Example 1-50] reads “effectively shortened”. Consider `Cc1cncc(-n2nc(C)c(CC(=O)O)c2-c2ccc(Cl)cc2)c1` [Example 1-51], for which the “longitudinal growth (culm length)” value is given as “effectively shortened”. Under `Cc1ccncc1-n1nc(C)c(CC(=O)O)c1-c1cccs1` [Example 1-52] stands “effectively shortened”; under `Cc1ccncc1-n1nc(C)c(CC(=O)O)c1-c1sccc1C` [Example 1-53], “effectively shortened”.

Take `Cc1csc(-c2c(CC(=O)O)c(C)nn2-c2cnccc2C)c1` [Example 1-54]: the “longitudinal growth (culm length)” value is “effectively shortened”.

With `Cc1ccncc1-n1nc(C)c(CC(=O)O)c1-c1ccc(Cl)s1` [Example 1-55], the “longitudinal growth (culm length)” value was “effectively shortened”.

Regarding `Cc1ccncc1-n1nc(C)c(CC(=O)O)c1-c1ccsc1` [Example 1-56], the “longitudinal growth (culm length)” value was “effectively shortened”.

Turning to `Cc1nn(-c2cccnc2)c(-c2cccs2)c1CC(=O)O` [Example 1-57], the “longitudinal growth (culm length)” value is “effectively shortened”.

`Cc1ccsc1-c1c(CC(=O)O)c(C)nn1-c1cccnc1` [Example 1-58]: the “longitudinal growth (culm length)” value is “effectively shortened”. The result for `Cc1csc(-c2c(CC(=O)O)c(C)nn2-c2cccnc2)c1` [Example 1-59] reads “effectively shortened”; that for `Cc1nn(-c2cccnc2)c(-c2ccc(Cl)s2)c1CC(=O)O` [Example 1-60], “effectively shortened”.

Turning to `Cc1ccc(-c2c(CC(=O)O)c(C)nn2-c2cccnc2)s1` [Example 1-61], the “longitudinal growth (culm length)” value is given as “effectively shortened”. Under `COc1ccc(-c2c(CC(=O)O)c(C)nn2-c2cccnc2)cn1` [Example 1-62] stands “effectively shortened”. Take `Cc1nn(-c2cccnc2)c(-c2ccsc2)c1CC(=O)O` [Example 1-63]: the “longitudinal growth (culm length)” value is on record as “effectively shortened”.

In the case of `Cc1nn(-c2cnccc2[S+](C)[O-])c(-c2ccc(Cl)cc2)c1CC(=O)O` (stereo not shown) [Example 1-64], the “longitudinal growth (culm length)” value was “effectively shortened”. The result for `Cc1nn(-c2cccnc2)c(-c2ccc(O)nc2)c1CC(=O)O` [Example 1-70] reads “effectively shortened”. The result for `Cc1nn(-c2cnccc2[S+](C)[O-])c(-c2ccccc2)c1CC(=O)O` (stereo not shown) [Example 1-71] reads “effectively shortened”; that for `O=C(O)Cc1cnn(-c2cccnc2)c1-c1ccccc1` [Example 1-72], “effectively shortened”. For `Cc1ccncc1-n1ncc(CC(=O)O)c1-c1ccccc1` [Example 1-73], the “longitudinal growth (culm length)” value is “effectively shortened”. Under `Cc1nn(-c2cccnc2)c(-c2ccccn2)c1CC(=O)O` [Example 1-109] stands “effectively shortened”.
